Consider 16 molecules from patent EP0549264A1, “Purified para-nitrobenzyl esterase from bacillus” (OKLAHOMA STATE UNIVERSITY, priority 1991, dated 1993).

The term inhibition denotes the relative decrease from the control value, in per cent.

The first assay addresses T1, PNB esterase (Bacillus subtilis, UniProt P37967).
T1 construct: A culture of Bacillus subtilis NRRL B-8079 was harvested and frozen by conventional methods; made in house; host or cells: Bacillus subtilis NRRL B-8079 (natural producer; enzyme purified from cell-free extract)
T1 sequence (P37967 1-489): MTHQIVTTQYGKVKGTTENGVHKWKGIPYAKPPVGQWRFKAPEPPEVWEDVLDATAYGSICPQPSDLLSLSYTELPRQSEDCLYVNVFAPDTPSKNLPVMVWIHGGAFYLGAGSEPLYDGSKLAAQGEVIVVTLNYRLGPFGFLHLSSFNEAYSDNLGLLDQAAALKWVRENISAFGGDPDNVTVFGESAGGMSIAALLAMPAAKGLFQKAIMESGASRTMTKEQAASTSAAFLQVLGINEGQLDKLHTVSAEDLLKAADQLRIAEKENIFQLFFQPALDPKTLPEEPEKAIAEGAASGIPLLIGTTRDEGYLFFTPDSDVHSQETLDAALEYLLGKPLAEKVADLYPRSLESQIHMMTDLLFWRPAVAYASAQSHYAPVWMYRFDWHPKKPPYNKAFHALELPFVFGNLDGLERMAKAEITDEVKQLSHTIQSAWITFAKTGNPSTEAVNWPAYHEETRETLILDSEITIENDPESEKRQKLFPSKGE
The assay can be described thus: PNB esterase activity assay (HPLC, method of Example 1D), effect of inhibitors. In kind it is biochemical.
Settings: not given
Consider `[Cl][Hg][Cl]` [HgCl₂], for which the “Inhibition (%)” value was 100% and the “PNB esterase activity inhibited (in words)” value is on record as “moderately inhibited”.

On to `CC(=O)[O-].CC(=O)[O-].[Zn+2]` [Zn(OCOCH₃)₂], for which the “Inhibition (%)” value came to 97%.

In the case of `O=S(=O)(F)Cc1ccccc1` [Phenylmethylsulfonylfluoride], the “PNB esterase activity inhibited (in words)” value is “strongly inhibited”.

For the molecule `CCOC(=O)OC(=O)OCC` [Diethylpyrocarbonate], the “PNB esterase activity inhibited (in words)” value was “strongly inhibited” and 1000 µM produced 100% inhibition.

With `OCCS` [2-Mercaptoethanol], at 1000 µM the inhibition was 0%.

The molecule `O=C(O)c1cc(SSc2ccc([N+](=O)[O-])c(C(=O)O)c2)ccc1[N+](=O)[O-]` [5,5'-Dithiobis(2-nitrobenzoic acid)] showed an inhibition at 1000 µM of 69%.

On to `O=C(O)CN(CCN(CC(=O)O)CC(=O)O)CC(=O)O` [EDTA, ethylenediamine tetraacetic acid], for which the inhibition at 1000 µM was 0%.

In the case of `O=S(=O)([O-])[O-].[Fe+2]` [FeSO4], the “Inhibition (%)” value turned out to be 100%.

Take `O=CC(=O)c1ccccc1` [Phenylglyoxal]: the “PNB esterase activity inhibited (in words)” value is given as “moderately inhibited” and the inhibition at 1000 µM was 91%.

As to Diethyl p-nitrophenylphosphate, the “Inhibition (%)” value came to 100% and the “PNB esterase activity inhibited (in words)” value is “strongly inhibited”.

With `O=C(NC(Cc1ccccc1)C(=O)Nc1ccc2ccccc2c1)c1ccccc1` (centres unmarked) [N-benzoyl phenylalanine naptylamide], the “Inhibition (%)” value is reported as 66% and the “PNB esterase activity inhibited (in words)” value is reported as “moderately inhibited”.

With `C(=NC1CCCCC1)=NC1CCCCC1` [Dicyclohexyl carbodiimide], the “PNB esterase activity inhibited (in words)” value is recorded as “moderately inhibited” and the inhibition at 1000 µM came out at 78%.

Still in this assay, the particulars now being: summary in words of Table 2; compounds at 1 mM.
As for `O=C(O)c1cc(SSc2ccc([N+](=O)[O-])c(C(=O)O)c2)ccc1[N+](=O)[O-]` [5,5'-Dithiobis(2-nitrobenzoic acid)], the “PNB esterase activity inhibited (in words)” value was “moderately inhibited”.

The next assay deals with T1, PNB esterase. The assay can be described thus: Substrate specificity comparison of native and recombinant PNB esterase. In kind it is biochemical. The following applies: both native enzyme and enzyme from recombinant Escherichia coli. As for the experimental part:
A 1 ml reaction mixture containing 5 µmoles Bis-Tris-Propane-HCl, pH 6.5, 0.5 µmole substrate (loracarbef PNB ester, or cefaclor PNB ester), and appropriate amounts of enzyme solution was incubated at 37°C in a constant-temperature shaker for 30 minutes The reaction was stopped by the addition of an equal volume of acetonitrile. The mixture was then centrifuged to remove the protein and the supernatant solution was analyzed by high performance liquid chromatography (HPLC) for product formation and substrate disappearance. The HPLC was performed in a C-18 reverse-phase column (Nova-Pak C₁₈ radial-pak cartridge (8 X 100 mm), Millipore Bedford, MA) with a linear gradient formed by Buffer A containing 80% of 1 mM Triethylamine-HCl, pH 2.5 and 20% methanol and Buffer B containing methanol, at a flow rate of 1 ml/minutes
The HPLC system used was a Varian HPLC system including a Vista 5560 unit (Varian Associates, Sugar Land TX) and a model 230-401 auto-sampling injector (Gilson Medical Electronics, Middleton, WI.). The PNB esterase activity was determined by monitoring product formation at 254 nm.
The PNB esterase purified from recombinant Escherichia coli was compared to the native enzyme by molecular weight, Western blot analysis, and substrate specificity.
Measurements of molecular weight gave values of 54,000 for enzyme from the two sources, and identical precipitin bands were obtained when the two enzyme preparations were tested using antibody prepared against native purified esterase. Both enzymes hydrolyzed cefaclor PNB ester, cefaclor nucleus PNB ester, loracarbef PNB ester, and loracarbef nucleus PNB ester. The native PNB esterase and the corresponding PNB esterase produced in recombinant E. coli strains appear functionally identical and structually the same at macroscale.
Take `N[C@@H](C(=O)N[C@@H]1C(=O)N2C(C(=O)OCc3ccc([N+](=O)[O-])cc3)=C(Cl)CS[C@H]12)c1ccccc1` [cefaclor PNB ester]: the “hydrolysis by PNB esterase” value is “hydrolyzed”.

With `N[C@@H](C(=O)N[C@@H]1C(=O)N2C(C(=O)OCc3ccc([N+](=O)[O-])cc3)=C(Cl)CC[C@H]12)c1ccccc1` [loracarbef PNB ester], the “hydrolysis by PNB esterase” value was “hydrolyzed”.

`N[C@@H]1C(=O)N2C(C(=O)OCc3ccc([N+](=O)[O-])cc3)=C(Cl)CS[C@H]12` [cefaclor nucleus PNB ester]: the “hydrolysis by PNB esterase” value was “hydrolyzed”.

With `N[C@@H]1C(=O)N2C(C(=O)OCc3ccc([N+](=O)[O-])cc3)=C(Cl)CC[C@H]12` [loracarbef nucleus PNB ester], the “hydrolysis by PNB esterase” value is reported as “hydrolyzed”.
